Molecular target: T1, MondoA/Mlx (Homo sapiens, UniProt Q9HAP2)
T1 construct: gene MLXIP; endogenous full-length MondoA/Mlx heterodimer in nuclear extract of Bcap37 cells, not purified; with Max-like protein X
T1 sequence (Q9HAP2 2-919): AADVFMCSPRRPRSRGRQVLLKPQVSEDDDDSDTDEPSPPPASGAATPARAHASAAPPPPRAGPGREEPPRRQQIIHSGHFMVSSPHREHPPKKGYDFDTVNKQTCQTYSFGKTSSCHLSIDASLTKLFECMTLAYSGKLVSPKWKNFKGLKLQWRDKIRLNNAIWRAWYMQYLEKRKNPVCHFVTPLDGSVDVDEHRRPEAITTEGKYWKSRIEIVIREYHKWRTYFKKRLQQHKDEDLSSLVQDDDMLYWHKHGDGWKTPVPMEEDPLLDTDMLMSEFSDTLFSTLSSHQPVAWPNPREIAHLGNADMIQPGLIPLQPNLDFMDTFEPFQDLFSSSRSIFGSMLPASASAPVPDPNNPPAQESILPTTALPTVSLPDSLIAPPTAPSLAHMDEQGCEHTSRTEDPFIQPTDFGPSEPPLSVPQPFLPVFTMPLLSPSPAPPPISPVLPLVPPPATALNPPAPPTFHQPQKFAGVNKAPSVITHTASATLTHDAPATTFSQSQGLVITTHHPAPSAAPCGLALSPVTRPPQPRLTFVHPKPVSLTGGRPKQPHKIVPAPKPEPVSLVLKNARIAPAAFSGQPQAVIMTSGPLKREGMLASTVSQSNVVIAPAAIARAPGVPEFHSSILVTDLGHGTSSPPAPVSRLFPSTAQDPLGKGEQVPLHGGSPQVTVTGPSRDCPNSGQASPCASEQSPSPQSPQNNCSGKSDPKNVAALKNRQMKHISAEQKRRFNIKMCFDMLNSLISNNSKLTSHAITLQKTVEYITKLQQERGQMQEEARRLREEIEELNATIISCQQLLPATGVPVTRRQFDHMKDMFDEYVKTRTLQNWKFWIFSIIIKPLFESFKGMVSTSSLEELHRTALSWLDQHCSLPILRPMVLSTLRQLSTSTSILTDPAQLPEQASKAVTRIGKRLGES
T1 sequence (Q9UH92 1-298 partner): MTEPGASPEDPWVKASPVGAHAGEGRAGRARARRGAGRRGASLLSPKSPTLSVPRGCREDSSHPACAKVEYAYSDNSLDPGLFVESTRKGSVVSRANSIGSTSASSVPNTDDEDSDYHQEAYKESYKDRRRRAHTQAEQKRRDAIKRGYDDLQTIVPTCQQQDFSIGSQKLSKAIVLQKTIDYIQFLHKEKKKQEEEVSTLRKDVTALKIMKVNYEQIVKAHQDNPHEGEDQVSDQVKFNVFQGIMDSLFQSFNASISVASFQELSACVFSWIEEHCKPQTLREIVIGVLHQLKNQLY
Experiment: EMSA, biotinylated Txnip ChoRE probe
Assay type: biochemical
Details: Bcap37 nuclear extract; G6PNa2 added in vitro (e.g. 0.05 and 0.25 mM); activator of promoter binding; indirect read-out, not a direct binding test

Q: How did the “EMSA, biotinylated Txnip ChoRE probe” value turn out when O=P(O)(O)OC[C@H]1OC(O)[C@H](O)[C@@H](O)[C@@H]1O (stereo partly shown) [G6PNa2] was run?
A: The value was “binding of MondoA to the promoter probe was significantly promoted by the activation of G6PNa2”.
